Measured values published in patent publication US20050014834A1, “Selective anesthetic agents and methods of identifying the same” (priority 2001, published 2005).

Columns and labels:
GABAA receptors = settings: cited from earlier work; for potentiation of the action of GABA: native and all recombinant GABAA receptors studied to date
[1] = system: β2N289S knock-in and wildtype mice; assay: Level of anaesthesia by electroencephalography (EEG burst suppression); format: in vivo, mouse; settings: 12.5 mg/kg intravenous; FIG. 4
Description: In order to compare the depth of anaesthesia in both genotypes, wildtype (n=4) and knock-in (n=4) mice were implanted with radiotelemetry transmitters for the measurement of electroencephalographic (EEG) data. Mice were allowed to recover from the surgical procedure for 14-21 days before experiment. Mice were dosed with 12.5 mg/kg etomidate by the intravenous route and EEG data was continuously sampled. Data sampled at 250 Hz (transmitter bandwidth 0.5-100 Hz, low pass data filter 70 Hz). Data analysed using Somnologica 3 in 100 mSec epochs for % suppression activity per minute. Isoelectric window defined as waveform amplitude less than 5 μV (typical peak to peak amplitude ˜250 μV).

[2] = molecular target: T1, human GABAA receptor β2 subunit (position 289 mutant) (Homo sapiens, UniProt P14867+P47870, N289S); settings: recombinant receptors expressed in cell lines; cited from earlier work
T1 construct: expressed in transfected cells
T1 sequence (P47870 25-512 N289S limits assumed): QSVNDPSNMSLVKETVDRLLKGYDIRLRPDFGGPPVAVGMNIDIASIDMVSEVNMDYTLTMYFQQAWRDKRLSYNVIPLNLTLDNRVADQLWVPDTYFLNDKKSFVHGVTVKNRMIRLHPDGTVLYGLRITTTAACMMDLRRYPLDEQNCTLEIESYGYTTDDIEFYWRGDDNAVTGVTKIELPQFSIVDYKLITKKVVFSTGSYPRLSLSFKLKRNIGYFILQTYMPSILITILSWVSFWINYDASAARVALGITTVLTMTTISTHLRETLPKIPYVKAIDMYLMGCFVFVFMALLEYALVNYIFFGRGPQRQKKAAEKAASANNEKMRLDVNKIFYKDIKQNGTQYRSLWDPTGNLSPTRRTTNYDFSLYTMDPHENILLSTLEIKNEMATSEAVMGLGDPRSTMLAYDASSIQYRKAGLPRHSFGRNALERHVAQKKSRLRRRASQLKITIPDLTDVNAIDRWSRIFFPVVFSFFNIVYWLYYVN
T1 sequence (P14867 28-456): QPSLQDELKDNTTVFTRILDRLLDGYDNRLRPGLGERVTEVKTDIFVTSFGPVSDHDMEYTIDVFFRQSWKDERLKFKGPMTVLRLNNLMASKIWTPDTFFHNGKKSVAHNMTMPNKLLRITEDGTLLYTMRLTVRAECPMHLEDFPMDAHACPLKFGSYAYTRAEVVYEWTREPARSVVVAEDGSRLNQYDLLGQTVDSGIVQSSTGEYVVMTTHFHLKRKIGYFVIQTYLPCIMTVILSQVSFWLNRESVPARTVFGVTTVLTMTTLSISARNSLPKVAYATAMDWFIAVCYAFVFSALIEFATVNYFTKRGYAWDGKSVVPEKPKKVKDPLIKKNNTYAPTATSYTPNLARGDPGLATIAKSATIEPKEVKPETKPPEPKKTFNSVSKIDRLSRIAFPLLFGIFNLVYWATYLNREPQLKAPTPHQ
T1 sequence (P18507 40-467 partner limits assumed): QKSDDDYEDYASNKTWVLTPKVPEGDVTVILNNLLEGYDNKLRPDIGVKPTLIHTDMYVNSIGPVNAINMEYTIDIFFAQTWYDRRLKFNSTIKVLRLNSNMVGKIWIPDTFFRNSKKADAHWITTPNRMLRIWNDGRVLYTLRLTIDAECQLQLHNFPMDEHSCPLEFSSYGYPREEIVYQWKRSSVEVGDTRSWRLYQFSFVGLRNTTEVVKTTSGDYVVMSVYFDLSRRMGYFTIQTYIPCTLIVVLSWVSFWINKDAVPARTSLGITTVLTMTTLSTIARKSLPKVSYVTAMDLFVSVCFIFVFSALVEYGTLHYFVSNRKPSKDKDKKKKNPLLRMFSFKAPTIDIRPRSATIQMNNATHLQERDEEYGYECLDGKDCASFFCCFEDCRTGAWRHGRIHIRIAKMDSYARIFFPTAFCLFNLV

[3] = system: β2N289S knock-in and wildtype mice; assay: Post-anaesthetic slow wave sleep by EEG (hypnotic hangover); format: in vivo, mouse; settings: 12.5 mg/kg intravenous, FIG. 5
Description: In order to quantify the amount of post-anaesthetic sleep, wildtype (n=4) and knock-in (n=4) mice were implanted with radiotelemetry transmitters for the measurement of electroencephalographic (EEG) data. Mice were allowed to recover from the surgical procedure for 13 days before experiment. Baseline EEG data was recorded on day 1 of the experimental protocol. On the 2nd experimental day, mice were dosed with 12.5 mg/kg etomidate by the intravenous route and EEG data was continuously sampled. EEG data sampled at 250 Hz (transmitter bandwidth 0.5-100 Hz, low pass data filter 70 Hz). Data analysed using Somnologica 3 in 8 sec epochs and scored for either “wake” or “slow wave sleep” according to standard electrophysiological criteria (van Gool, W. A. & Mirmiran, M., Sleep, 9, 335 (1986)). Following recovery from etomidate anaesthesia, the amount of slow wave sleep was expressed as percentage of the circadian timed matched baseline.

[4] = molecular target: GABAA receptor β3 subunit N289S (Homo sapiens, UniProt P28472+Q16445, N290S); settings: asparagine 289 of β3 to serine; cited from earlier work
[5] = system: β2N289S knock-in and wildtype mice; assay: Rotarod test of motor co-ordination: recovery following etomidate anesthesia; format: in vivo, mouse; settings: for time mice could stay on rotarod: 90 minutes after testing began, rod 16 rpm, 120 second trial
Description: Wildtype (n=30) and knock-in (n=30) mice were trained to perform the rotarod test of motor co-ordination. Mice were placed on a rod revolving at 16 rpm and the time taken for them to fall off recorded. Each mouse was given successive training trials until it could remain on the rod for 3 consecutive trials of 120 second duration. Mice were then split into 3 groups (n=10 for each genotype) and dosed i.p. with 15, 20 or 30 mg/kg etomidate. Mice were then placed back on the rotarod every 10 minutes (for 90 minutes), starting from the mean time for recovery of righting reflex for a given dose (obtained from experiment 1). In this way the rate of recovery of the ability to perform a motor task could be assessed.

[6] = system: β2N289S knock-in and wildtype mice; assay: Loss of righting reflex (LORR) as behavioural measure of anesthesia; format: in vivo, mouse
Description: Loss of righting reflex (LORR) was used as a crude behavioural measure of anesthesia. Mice (n=11 wildtype, n=10 knock-in for each dose) were dosed intraperitoneally (i.p.) with 20, 30 or 40 mg/kg etomidate. Each mouse was placed in a separate cage and tested for LORR by gently rolling the mouse on it back. When the righting reflex had disappeared (usually around 90 seconds) the mouse was laid on it back on a piece of corrugated plastic and the time until righting reflex was regained was recorded. In order to avoid excessive heat loss during anesthesia a heat lamp was placed above the mice. To control for non-specific changes in anesthetic sensitivity induced by the mutation two different classes of anesthetics were also tested in this model: pentobarbitone, 50 mg/kg i.p. (n=11) and midazolam, 80 mg/kg i.p. (n=5).

Sequence of GABAA receptor β3 subunit N289S (P28472 26-473 N290S, one chain of several): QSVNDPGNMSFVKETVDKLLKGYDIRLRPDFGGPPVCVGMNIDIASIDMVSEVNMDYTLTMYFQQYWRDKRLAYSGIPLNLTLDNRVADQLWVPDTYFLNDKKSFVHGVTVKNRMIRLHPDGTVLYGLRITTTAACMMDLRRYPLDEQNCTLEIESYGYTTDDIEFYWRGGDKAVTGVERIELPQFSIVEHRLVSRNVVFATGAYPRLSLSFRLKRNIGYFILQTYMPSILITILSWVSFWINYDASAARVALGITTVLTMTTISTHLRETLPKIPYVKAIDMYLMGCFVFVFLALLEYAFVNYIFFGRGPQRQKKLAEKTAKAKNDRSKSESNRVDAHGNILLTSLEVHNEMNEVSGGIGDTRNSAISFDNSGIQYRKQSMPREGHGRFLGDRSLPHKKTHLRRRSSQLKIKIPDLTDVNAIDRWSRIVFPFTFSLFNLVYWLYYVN
Sequence of GABAA receptor β3 subunit N289S (Q16445 20-453, one chain of several): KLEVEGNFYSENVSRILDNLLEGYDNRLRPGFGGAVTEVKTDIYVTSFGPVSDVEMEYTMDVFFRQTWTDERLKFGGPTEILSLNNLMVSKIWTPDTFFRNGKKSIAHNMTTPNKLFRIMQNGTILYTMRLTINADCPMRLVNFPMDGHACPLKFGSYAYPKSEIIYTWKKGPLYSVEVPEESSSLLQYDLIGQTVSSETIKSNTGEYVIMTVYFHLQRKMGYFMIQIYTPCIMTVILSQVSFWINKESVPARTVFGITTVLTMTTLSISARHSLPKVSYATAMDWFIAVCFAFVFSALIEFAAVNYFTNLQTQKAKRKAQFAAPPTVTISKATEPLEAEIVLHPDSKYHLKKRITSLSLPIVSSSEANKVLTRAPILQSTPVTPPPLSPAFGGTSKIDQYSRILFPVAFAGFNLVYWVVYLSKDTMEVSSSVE

In the case of CC(=O)[C@H]1CC[C@H]2[C@@H]3CC[C@H]4C[C@H](O)CC[C@]4(C)[C@H]3C(=O)C[C@]12C [alphaxalone], the “potentiation of the action of GABA” value (GABAA receptors) is listed as “markedly potentiate the action of GABA”.

In the case of CCOC(=O)c1cncn1[C@H](C)c1ccccc1 [etomidate], the “EEG burst suppression (% of each minute EEG in suppression), wildtype versus knock-in” value [1] is listed as “no significant difference in the EEG pattern of both genotypes”, the “sensitivity of mutant β2 (position 289) receptors” value [2] is listed as “insensitive” and the “level of slow wave sleep versus circadian matched baseline after recovery” value ([3]; knock-in mice, P>0.05) is listed as “not statistically different”. For the same molecule, the “level of slow wave sleep versus circadian matched baseline after recovery” value ([3]; wildtype mice, up to 3 hours post recovery, ANOVA P<0.05) was “enhanced level of sleep”, the “effect of β3 N289S mutation on GABA-modulatory and GABA-mimetic effects” value [4] was “strongly suppressed” and the “β subunit preference of potentiation and direct activation of receptors” value (GABAA receptors; β2 or β3 versus β1 subunit) was “favours receptors containing either a β2 or a β3 subunit, versus a β1 subunit”. The “rate of recovery of rotarod performance, wildtype versus knock-in” value ([5]; 15 mg/kg i.p.) was “recovered rotarod performance at a similar rate”, the “rate of recovery of rotarod performance, wildtype versus knock-in” value ([5]; 20 mg/kg and especially 30 mg/kg i.p.) was “wildtype mice recovered more slowly than knock-in mice” and the “recovery of performance in the rotarod assay, β2N289S mice compared with wildtype” value ([5]; anesthetic doses) was “dramatically faster recovery”. For the same molecule, the “time mice could stay on rotarod” value ([5]; knock-in mice, 15 mg/kg i.p.) was “approximately 120 seconds”, the “time mice could stay on rotarod” value ([5]; wildtype mice, 15 mg/kg i.p.) was “approximately 120 seconds” and the “effect of dose on rate of rotarod recovery” value ([5]; wildtype mice, 15, 20, 30 mg/kg i.p., F18,243=5.80, p<0.00005, FIG. 3) was “clear effect on the rate of recovery with increasing dose”. For the same molecule, the “time until righting reflex had disappeared” value ([6]; after i.p. dosing 20, 30 or 40 mg/kg, 'usually') was “around 90 seconds” and the “duration of LORR, knock-in versus wildtype mice” value ([6]; etomidate 20, 30 or 40 mg/kg i.p., F1,57=0.005, p=0.9498, FIG. 2) was “nearly significantly similar”.

For Cc1ncc2n1-c1ccc(Cl)cc1C(c1ccccc1F)=NC2 [midazolam], the “duration of LORR, knock-in versus wildtype mice” value ([6]; midazolam 80 mg/kg i.p., F1,28=0.61, p=0.44) was “no significant difference”.

For CCCC(C)C1(CC)C(=O)NC(=O)NC1=O (stereo not drawn) [pentobarbitone], the “duration of LORR, knock-in versus wildtype mice” value ([6]; pentobarbitone 50 mg/kg i.p., F1,28=0.61, p=0.44) was “no significant difference”.

In the case of CC(C)c1cccc(C(C)C)c1O [propofol], the “potentiation of the action of GABA” value (GABAA receptors) is listed as “markedly potentiate the action of GABA”.
